According to publication PMC5354456, “Selective inhibition of RNA polymerase I transcription as a potential approach to treat African trypanosomiasis” (PLoS Neglected Tropical Diseases, 2017):
Entries after “also recorded” stand apart in the source; their conditions may differ.

What was measured:
[1] = system: T. brucei SM; assay: Proliferation assay (growth curves, haemocytometer); assay type: cell-based, Trypanosoma brucei; settings: growth over 48 hours
Method: (§1) For proliferation assays, T. brucei SM was treated with inhibitors, and densities were determined using a Neubauer haemocytometer. Growth curves were repeated minimally in triplicate. For wash-out assays, T. brucei SM was treated with various concentrations of inhibitors. After two hours the cells were washed, resuspended in drug free HMI-9 medium, and cell proliferation was monitored using a haemocytometer. For the Alamar Blue in vitro cytotoxicity assay, 200 μl samples of T. brucei SM cells (2 x 10^3 cells ml^-1) were plated in 96 well plates, and incubated for 72 hours with two fold serial dilutions of the inhibitors. At 72 hours, 20 μl of Resazurin (0.125 mg ml^-1) (Sigma) was added, and the parasites were incubated for a further 18 hours. Fluorescence was measured using a Tecan infinite plate reader (excitation at 530 nm, emission at 585 nm). The change in fluorescence (minus the chemical only control) was plotted as a function of the concentration of chemical compound using the sigmoidal dose-response (variable slope) algorithm using GraphPad Prism version 5.

[2] = system: T. brucei RPA2 Pol I subunit; assay: Western blot of YFP-RPA2 Pol I subunit; assay type: cell-based, Trypanosoma brucei; settings: 3 μM, one hour, T. brucei TY-YFP-RPA2
Method: (A) The T. brucei TY-YFP-RPA2 cell line was incubated with various concentrations of BMH-21 for the time indicated in hours. As a control, T. brucei was also incubated with 800 nM of suramin. Lysate from 1 x 10^7 cell equivalents was blotted and probed with anti-TY (BB2) antibody. A band corresponding to T. brucei RPA2 is shown, as well as a Ponceau S stain of the blot to serve as a loading control. Size markers in kiloDaltons (kDa) are indicated. (TIF) Click here for additional data file.

[3] = system: MCF10A human breast epithelial cell line; assay: IncuCyte cell confluence proliferation assay, MCF10A cells; assay type: cell-based; settings: for IC50: 48 hour IncuCyte, mean ± SD; for selectivity index for T. brucei vs MCF10A (Incucyte): IC50 MCF10A Incucyte / IC50 T. brucei
Method: (§2) For the mammalian cell toxicity assays, either the spontaneously immortalised Michigan Cancer foundation (MCF10A) human breast epithelial cell line was used, or the BJ3 cell line, which is a human foreskin fibroblast cell line immortalized with the h-Tert catalytic subunit of telomerase. Cells were seeded in 96-well plates, and after 48 hours each well was treated in quintuplicate using ten different concentrations of CX-5461, quarfloxin, BMH-21 or suramin. After incubation for 48 hours, the cells were imaged and cell confluence was calculated using an IncuCyte ZOOM (Essen Biosciences). Cell confluence was normalised to a drug vehicle only control which was set to 100%. An Alamar Blue assay was also performed on the MCF10A cell line in the presence of the different Pol I transcription inhibitors. Here the Alamar Blue readout was also normalised to the vehicle only control. Experiments were performed as three biological replicates with the exception of the Incucyte data for MCF10A in the presence of BMH-21 and doxycycline which were obtained in duplicate. The dose response curves and IC50s were calculated using GraphPad Prism.

[4] = system: MCF10A human breast epithelial cell line; assay: Alamar Blue cytotoxicity assay, MCF10A cells; assay type: cell-based; settings: for IC50: 72 hour Alamar Blue, mean ± SD; for T. brucei more sensitive than MCF10A: Alamar Blue IC50s compared; for selectivity index for T. brucei vs MCF10A (Alamar blue): IC50 MCF10A Alamar blue / IC50 T. brucei
Method: as §2

[5] = system: Expression Site Body (ESB) and nucleolus of T. brucei; assay: Immunofluorescence microscopy of ESB, VEX1 foci and nucleolus; assay type: cell-based, Trypanosoma brucei; settings: for cells with an ESB / ESB positive cells: one hour, G1 cells, untreated 64 ± 17%
Method: Trypanosomes were fixed in 2% paraformaldehyde, permeabilised with 0.1% NP-40 for 5 minutes at room temperature before incubation for one hour with an antibody against the nucleolar marker L1C6 [47] or anti-myc tag antibody (clone 4A6, EMD Millipore). Slides were subsequently incubated with a goat anti-mouse secondary antibody coupled to Alexa-594 (Molecular Probes), before mounting in Vectashield containing DAPI (Vector Laboratories). Microscopy was performed using a Zeiss Imager.M1 microscope equipped with a Zeiss AxioCam MRm camera and Axio Vision Rel 4.8 software. A Z-stack of images was taken at 200 nm intervals, and the images from the individual channels were processed using Image J software. For quantitation of ESB signal using YFP, VEX1 signal using the anti-myc tag antibody or nucleolar signal using the L1C6 antibody, the exposure time and contrast was uniformly adjusted across all conditions. Quantification of ESB and nucleolar signal was carried out using compressed stacks of all appropriate channels in which the images acquired on the Z-axis were analysed. The ESB and nucleolar status was recorded for a total of approximately 100 cells in G1 (two biological replicates of approximately 50 cells) for each condition.

[6] = system: BJ3 human foreskin fibroblast cell line; assay: IncuCyte cell confluence assay, BJ3 fibroblasts; assay type: cell-based; settings: for IC50: 48 hours IncuCyte, IC50 for cell death, mean ± SD; for selectivity index for T. brucei vs BJ3 human fibroblasts (Incucyte): IC50 BJ3 cell death / IC50 T. brucei
Method: as §2
In parallel, the BJ3 human foreskin fibroblast cell line that had been immortalised with hTert (the catalytic subunit of telomerase) was also tested for sensitivity to these compounds [46] (S2 Fig)(S3 Fig). The IC50 values corresponding to either growth arrest or cell death shown in S2 Fig were obtained by observing the cell images (S3 Fig) and determining the point where the specific dose curve plateaus at the higher concentrations. If the cells were morphologically sound, then the dose curve represented growth arrest of the cells. If the cells were dead, then the dose curve represented cell death. The IC50 values for cell death were used to calculate the selectivity index scores.

[7] = system: bloodstream form Trypanosoma brucei; assay: Alamar Blue in vitro cytotoxicity assay, T. brucei SM; assay type: cell-based; settings: for IC50: 72 hour Alamar Blue, mean ± SD, three biological replicates; for T. brucei more sensitive than human cells (selectivity range): compared with MCF10A and BJ3 human cell lines
Method: as §1

[8] = system: Pol I transcription (rDNA and VSG221 ES precursor transcripts); assay: RNA precursor transcript analysis by qRT-PCR; assay type: cell-based, Trypanosoma brucei
Method: RNA transcript analysis was performed using quantitative reverse transcription PCR (qRT-PCR). Total RNA was isolated using the RNeasy kit (Qiagen) and DNase treated with TURBO DNA-free kit (Invitrogen). Reverse transcription was performed using 100 ng RNA as a template for cDNA synthesis using random hexamer primers (Promega) and the Omniscript RT kit (Qiagen). qPCR was performed on the 7500 Fast Real-Time PCR system (Life Technologies) using Brilliant II SYBR Green QPCR Low ROX Master Mix (Agilent Technologies). DNase treated RNA without reverse transcriptase was used as a control. The amplification conditions for each primer pair were optimised, and the primer sequences are listed in S1 Table. Transcript levels were normalised against actin mRNA, and plotted as relative change relative to the zero hour time point.

[9] = system: T. brucei SM; assay: Wash-out assay; assay type: cell-based, Trypanosoma brucei; settings: two hours incubation, then wash-out
Method: as §1

[10] = system: T. b. rhodesiense; parameters: method as in PMID 20149544; settings: similar Alamar Blue assay; read-out: IC50 suramin for T. b. rhodesiense; cited from earlier work

Structure (SMILES)	drug concentration that resulted in suppression of proliferative growth in T. brucei [1] [nM]	selectivity index for T. brucei vs MCF10A (Incucyte) [3]	T. brucei more sensitive than MCF10A [4] [fold]	selectivity index for T. brucei vs MCF10A (Alamar blue) [4]	nucleolar structure (L1C6 marker) ([5]; 3 μM)	cells with an ESB ([5]; 3 μM)	VEX1 signal (ESB marker) ([5]; 3 μM, three hours)	selectivity index for T. brucei vs BJ3 human fibroblasts (Incucyte) [6]	T. brucei more sensitive than human cells (selectivity range) [7]	reversibility of inhibition of T. brucei proliferation [9]	IC50 ([3]; Homo sapiens, MCF-10A) [µM]	IC50 ([4]; Homo sapiens, MCF-10A) [µM]	IC50 ([6]; Homo sapiens, Fibroblast) [µM]	IC50 ([7]; Trypanosoma brucei) [µM]	further results
CN(C)CCNC(=O)c1cccn2c(=O)c3cc4ccccc4cc3nc12 [BMH-21]	300	(4.6x)	3.4	(3.4x)	nucleoli fragmenting into multiple foci	1 ± 1.4%	drastically reduced	(10x)	3-10 fold	–	–	–	–	–	degradation of the RPA2 Pol I subunit [2]: we did not see evidence for degradation of the RPA2 Pol I subunit; IC50 [3]: 0.622 ± 0.34 µM; IC50 [4]: 0.46 ± 0.08 µM; IC50 [6]: 1.36 ± 0.22 µM; IC50 [7]: 0.134 ± 0.008 µM
Cc1cnc(CNC(=O)c2c(=O)c3ccc(N4CCCN(C)CC4)nc3n3c2sc2ccccc23)cn1 [CX-5461]	1000	(28x)	25	(25x)	nucleoli fragmenting into multiple foci	4.5 ± 0.7%	drastically reduced	(35x)	25-35 fold	irreversibly	7.84 ± 9.8	6.89 ± 4.83	9.78 ± 0.79	0.279 ± 0.016	repression of Pol I transcription ([8]; 1 μM, 15 minutes): specific knockdown of Pol I transcripts
C[C@H]1c2cccc(O)c2C(=O)C2=C(O)[C@]3(O)C(=O)C(C(N)=O)=C(O)[C@@H](N(C)C)[C@@H]3[C@@H](O)[C@@H]21 [Doxycycline, doxycycline]	–	–	–	–	–	–	–	–	–	–	–	50.7 ± 33.8	–	–	–
CN1CCC[C@H]1CCNC(=O)c1cn2c3c(c(N4CCC(c5cnccn5)C4)c(F)cc3c1=O)Oc1cc3ccccc3cc1-2 (some centres unmarked) [Quarfloxin, quarfloxin]	300	(40x)	29	(29x)	nucleoli fragmenting into multiple foci	No cells contained an ESB; also recorded: none of the cells had an ESB	drastically reduced	(18x)	18-40 fold	irreversibly	6.24 ± 3.87	4.44 ± 3.29	2.72 ± 0.17	0.155 ± 0.009	VSG221 precursor transcript reduced by ([8]; 1 μM, 15 minutes): 94.5 ± 1.9%; VSG pseudogene transcript reduced by ([8]; 1 μM, 15 minutes): 92.3 ± 1.6%; pre-rRNA Precursor 1 transcript levels reduced by (primer a) ([8]; 1 μM, 15 minutes): 98.5 ± 0.66%; rRNA Precursor 2 decreased by (primer b) ([8]; 1 μM, 15 minutes): 91.3 ± 2.6%; rRNA Precursors 2 and 3 reduced by (primer pair c) ([8]; 1 μM, 15 minutes): 83.4 ± 2.1%; rRNA Precursors 2 and 3 reduced by (primer pair d) ([8]; 1 μM, 15 minutes): 89.5 ± 2.7%; Pol II derived tubulin precursor transcript level ([8]; 1 μM, fifteen minutes): 129 ± 10.3 % normal; ESB positive cells ([5]; 300 nM): 30.5 ± 5%; ESB positive cells ([5]; 1 μM): 7.5 ± 0.7%
Cc1ccc(C(=O)Nc2ccc(S(=O)(=O)O)c3cc(S(=O)(=O)O)cc(S(=O)(=O)O)c23)cc1NC(=O)c1cccc(NC(=O)Nc2cccc(C(=O)Nc3cc(C(=O)Nc4ccc(S(=O)(=O)O)c5cc(S(=O)(=O)O)cc(S(=O)(=O)O)c45)ccc3C)c2)c1 [Suramin, suramin]	–	–	–	–	–	–	–	–	–	–	1260 ± 90	1640 ± 317	890 ± 127	0.063 ± 0.005	effect on Pol I and Pol II derived precursor transcript levels ([8]; 800 nM, 15 minutes): did not lead to reduced levels of any of these transcripts; IC50 [10]: 0.053 µM; nucleolar structure (L1C6 marker) ([5]; 800 nM): did not lead to significant changes in structure of the nucleoli; effect on ESB positive cells ([5]; 800 nM, one to three hours): only a marginal reduction in ESB positive cells; ESB as visualised using epitope tagged VEX1 ([5]; 800 nM, three hours): no specific disintegration of the ESB was observed
